Like-named read-outs stand apart in the source and are kept apart here.
Experiments:
uOR [1] = biological target: T1, uOR (Mus musculus, UniProt P42866); assay: Agonist induced ERK 1/2 phosphorylation (efficacy and potency relative to DAMGO)
uOR [2] = biological target: T1, uOR; assay: β-arrestin recruitment to uOR / receptor internalization; type: cell-based; design: expressed in transfected cells
Description: The data provided in Tables 1A and 1B below were obtained using standard analytical techniques known to those skilled in the art. Such techniques are described in detail in C.
[…] were transiently transfected (electroporation) with combinations of cDNA for hemagglutinin (HA-N terminus)-tagged uOR, beta-arrestin2 tagged with green fluorescent protein, mouse uOR tagged at the C terminus with yellow fluorescent protein and GRK-2. […] After addition of drug, cells were visualized using confocal microscopy. Multiple cells were recorded per dish after more than four separate transfection experiments—representative cells are shown in the manuscript.
The “β-arrestin Recruitment EC50±SEM” column in Table 2 below represents the degree to which each tested compound recruited beta-arrestin to interact with uOR. As will be appreciated by those skilled in the art, EC50 refers to the concentration of a drug which induces a response halfway between the baseline and maximum after a specified exposure time. In this instance, lower values indicate greater potency of the molecule, and this is […].
As will also be understood by those skilled in the art, “Max Fold Efficacy” refers to the maximum signal/background ratio that an agonist will induce or, conversely, that an antagonist will inhibit an agonist from inducing a response. In Table 2 below, the “Max Fold Efficacy” column indicates the strength of the signal increase over the control/background measurement for uOR receptor internalization at the E.C. 50.

[3] = maximum signal/background ratio for uOR receptor internalization at the EC50
[4] = recruitment of beta-arrestin to interact with uOR, bound given in μM, read-out: β-arrestin Recruitment EC50 ± SEM

T1 sequence (P42866 whole entry): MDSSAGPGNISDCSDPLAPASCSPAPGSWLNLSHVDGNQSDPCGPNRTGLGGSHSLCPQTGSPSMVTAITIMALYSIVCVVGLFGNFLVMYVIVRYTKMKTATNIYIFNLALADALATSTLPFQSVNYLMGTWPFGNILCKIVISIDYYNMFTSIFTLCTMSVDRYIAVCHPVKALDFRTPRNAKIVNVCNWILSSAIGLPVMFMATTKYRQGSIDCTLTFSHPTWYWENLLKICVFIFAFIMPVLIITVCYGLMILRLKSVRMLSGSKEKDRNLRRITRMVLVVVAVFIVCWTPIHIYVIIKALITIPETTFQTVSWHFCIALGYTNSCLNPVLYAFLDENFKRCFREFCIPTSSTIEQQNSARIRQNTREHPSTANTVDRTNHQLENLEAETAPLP

| Compound | EC50 (uOR [1]) | Max Fold Efficacy (uOR [2]; [3]) | EC50 (uOR [2]; [4]) | Max Fold Efficacy (uOR [2]) | EC50 (uOR [2]) |
| --- | --- | --- | --- | --- | --- |
| CCc1ncc(C(=O)O[C@H]2C[C@@H](C(=O)OC)[C@]3(C)CC[C@H]4C(=O)O[C@H](c5ccoc5)C[C@]4(C)[C@H]3C2=O)cn1 | 917 nM | 5.1 | > 10 µM |  |  |
| COC(=O)[C@@H]1C[C@H](OC(=O)c2cc(C)on2)C(=O)[C@H]2[C@@]1(C)CC[C@H]1C(=O)O[C@H](c3ccoc3)C[C@]21C | 1750 nM | 1.3 | > 10 µM |  |  |
| COC(=O)[C@@H]1C[C@H](OC(=O)Nc2ccc(C(F)(F)F)cc2)C(=O)[C@H]2[C@@]1(C)CC[C@H]1C(=O)O[C@H](c3ccoc3)C[C@]21C [Formula Ia-vi] | 327 nM | 5.1 | > 10 µM |  |  |
| COC(=O)[C@@H]1C[C@H](OC(=O)c2ccon2)C(=O)[C@H]2[C@@]1(C)CC[C@H]1C(=O)O[C@H](c3ccoc3)C[C@]21C | 3780 nM | 1 | > 10 µM |  |  |
| Met-Enkephalin [reference compound] |  |  |  | 38.3 |  |
| COC(=O)[C@@H]1C[C@H](OC(=O)c2ccc(F)cc2)C(=O)[C@H]2[C@@]1(C)CC[C@H]1C(=O)O[C@H](c3ccoc3)C[C@]21C | 1640 nM | 2.2 | > 10 µM |  |  |
| COC(=O)[C@@H]1C[C@H](OC(=O)Nc2ccc(C)cc2)C(=O)[C@H]2[C@@]1(C)CC[C@H]1C(=O)O[C@H](c3ccoc3)C[C@]21C [Formula Ia-ii] | 108 nM | 8.8 | > 10 µM |  |  |
| COC(=O)[C@@H]1C[C@H](OC(=O)Nc2csc(C)n2)C(=O)[C@H]2[C@@]1(C)CC[C@H]1C(=O)O[C@H](c3ccoc3)C[C@]21C [Formula Ic-i] | 0.854 nM | 31.3 |  |  | 2.07 ± 0.649 µM |
| COC(=O)[C@@H]1C[C@H](OC(=O)c2nc(C)co2)C(=O)[C@H]2[C@@]1(C)CC[C@H]1C(=O)O[C@H](c3ccoc3)C[C@]21C | 5990 nM |  | > 10 µM |  |  |
| COC(=O)[C@@H]1C[C@H](NC(=O)NC(=O)c2ccccc2)C(=O)[C@H]2[C@@]1(C)CC[C@H]1C(=O)O[C@H](c3ccoc3)C[C@]21C [Formula Ib-i] | 610 nM | 3.14 | > 10 µM |  |  |
| COC(=O)[C@@H]1C[C@H](OC(=O)c2ccc(OC)cc2)C(=O)[C@H]2[C@@]1(C)CC[C@H]1C(=O)O[C@H](c3ccoc3)C[C@]21C | 3500 nM | 3.1 | > 10 µM |  |  |
| CCc1ncc(NC(=O)O[C@H]2C[C@@H](C(=O)OC)[C@]3(C)CC[C@H]4C(=O)O[C@H](c5ccoc5)C[C@]4(C)[C@H]3C2=O)cn1 | 7460 nM |  | > 10 µM |  |  |
| COC(=O)[C@@H]1C[C@H](OC(=O)NC(=O)c2ccccc2)C(=O)[C@H]2[C@@]1(C)CC[C@H]1C(=O)O[C@H](c3ccoc3)C[C@]21C [Formula Ib-ii] | 633 nM | 4.8 | > 10 µM |  |  |
| COC(=O)[C@@H]1C[C@H](OC(=O)Nc2ncc(C)s2)C(=O)[C@H]2[C@@]1(C)CC[C@H]1C(=O)O[C@H](c3ccoc3)C[C@]21C | 1280 nM |  | > 10 µM |  |  |
| COC(=O)[C@@H]1C[C@H](OC(=O)c2ccc(Cl)nc2)C(=O)[C@H]2[C@@]1(C)CC[C@H]1C(=O)O[C@H](c3ccoc3)C[C@]21C [Formula Id-ii] | 373 nM | 9.3 | > 10 µM |  |  |
| COC(=O)[C@@H]1C[C@H](OC(=O)Nc2ccc(Cl)cc2F)C(=O)[C@H]2[C@@]1(C)CC[C@H]1C(=O)O[C@H](c3ccoc3)C[C@]21C [Formula Ia-viii] | 522 nM | 2.3 | > 10 µM |  |  |
| COC(=O)[C@@H]1C[C@H](OC(=O)Nc2ccc(Cl)cc2)C(=O)[C@H]2[C@@]1(C)CC[C@H]1C(=O)O[C@H](c3ccoc3)C[C@]21C [Formula Ia-iii] | 146 nM | 7.6 | > 10 µM |  |  |
| COC(=O)[C@@H]1C[C@H](OC(=O)c2cc(C)cs2)C(=O)[C@H]2[C@@]1(C)CC[C@H]1C(=O)O[C@H](c3ccoc3)C[C@]21C [Formula Id-iii] | 377 nM | 6.1 | > 10 µM |  |  |

| Compound | EC50 (uOR [1]) | Max Fold Efficacy (uOR [2]; [3]) | EC50 (uOR [2]; [4]) | Max Fold Efficacy (uOR [2]) | EC50 (uOR [2]) |
| --- | --- | --- | --- | --- | --- |
| COC(=O)[C@@H]1C[C@H](OC(=O)Nc2cnc(C)cn2)C(=O)[C@H]2[C@@]1(C)CC[C@H]1C(=O)O[C@H](c3ccoc3)C[C@]21C [Formula Ic-iii] | 35.7 nM | 9.5 | > 10 µM |  |  |
| COC(=O)[C@@H]1C[C@H](NC(=O)NS(=O)(=O)c2ccc(Cl)cc2)C(=O)[C@H]2[C@@]1(C)CC[C@H]1C(=O)O[C@H](c3ccoc3)C[C@]21C | > 10000 nM |  | > 10 µM |  |  |
| COC(=O)[C@@H]1C[C@H](OC(=O)Nc2cc(C)on2)C(=O)[C@H]2[C@@]1(C)CC[C@H]1C(=O)O[C@H](c3ccoc3)C[C@]21C [Formula Ic-v] | 118 nM | 2.4 | > 10 µM |  |  |
| COC(=O)[C@@H]1C[C@H](OC(=O)Nc2ccc(F)c(F)c2)C(=O)[C@H]2[C@@]1(C)CC[C@H]1C(=O)O[C@H](c3ccoc3)C[C@]21C [Formula Ia-vii] | 412 nM | 2.2 | > 10 µM |  |  |
| COC(=O)[C@@H]1C[C@H](NC(=O)Nc2ccc(C#N)cc2)C(=O)[C@H]2[C@@]1(C)CC[C@H]1C(=O)O[C@H](c3ccoc3)C[C@]21C | 4290 nM |  | > 10 µM |  |  |
| COC(=O)[C@@H]1C[C@H](OC(=O)Nc2nc(C)cs2)C(=O)[C@H]2[C@@]1(C)CC[C@H]1C(=O)O[C@H](c3ccoc3)C[C@]21C [Formula Ic-ii] | 25.2 nM | 3.8 | > 10 µM |  |  |
| COC(=O)[C@@H]1C[C@H](OC(=O)Nc2cnc(C)nc2)C(=O)[C@H]2[C@@]1(C)CC[C@H]1C(=O)O[C@H](c3ccoc3)C[C@]21C [Formula Ic-iv] | 79.1 nM | 2.8 | > 10 µM |  |  |
| COC(=O)[C@@H]1C[C@H](OC(=O)Nc2ccccc2)C(=O)[C@H]2[C@@]1(C)CC[C@H]1C(=O)O[C@H](c3ccoc3)C[C@]21C | 1200 nM |  | > 10 µM |  |  |
| COC(=O)[C@@H]1C[C@H](OC(=O)c2ccc(C(F)(F)F)cc2)C(=O)[C@H]2[C@@]1(C)CC[C@H]1C(=O)O[C@H](c3ccoc3)C[C@]21C | 930 nM |  | > 10 µM |  |  |
| COC(=O)[C@@H]1C[C@H](OC(=O)Nc2ccc(C#N)cc2)C(=O)[C@H]2[C@@]1(C)CC[C@H]1C(=O)O[C@H](c3ccoc3)C[C@]21C [Formula Ia-i] | 35.5 nM | 9.5 |  |  | 9.85 ± 0.153 µM |
| COC(=O)[C@@H]1C[C@H](OC(=O)Nc2ccc(F)cc2)C(=O)[C@H]2[C@@]1(C)CC[C@H]1C(=O)O[C@H](c3ccoc3)C[C@]21C [Formula Ia-iv] | 156 nM | 4.3 | > 10 µM |  |  |
| COC(=O)[C@@H]1C[C@H](OC(=O)Nc2ccc(Cl)c(Cl)c2)C(=O)[C@H]2[C@@]1(C)CC[C@H]1C(=O)O[C@H](c3ccoc3)C[C@]21C | 1850 nM |  | > 10 µM |  |  |
| COC(=O)[C@@H]1C[C@H](OC(=O)Nc2ccc(SC(F)(F)F)cc2)C(=O)[C@H]2[C@@]1(C)CC[C@H]1C(=O)O[C@H](c3ccoc3)C[C@]21C | 2300 nM |  | > 10 µM |  |  |
| COC(=O)[C@@H]1C[C@H](OC(=O)c2ccccc2)C(=O)[C@H]2[C@@]1(C)CC[C@H]1C(=O)O[C@H](c3ccoc3)C[C@]21C | 1110 nM | 2.4 | > 10 µM |  |  |
| COC(=O)[C@@H]1C[C@H](OC(=O)c2cnc(C)nc2)C(=O)[C@H]2[C@@]1(C)CC[C@H]1C(=O)O[C@H](c3ccoc3)C[C@]21C [Formula Id-i] | 2.85 nM | 4.2 | > 10 µM |  |  |
| COC(=O)[C@@H]1C[C@H](OC(=O)c2cnc(C)cn2)C(=O)[C@H]2[C@@]1(C)CC[C@H]1C(=O)O[C@H](c3ccoc3)C[C@]21C | 1280 nM | 1.8 | > 10 µM |  |  |
| COC(=O)[C@@H]1C[C@H](OC(=O)Nc2ccc(OC(F)F)cc2)C(=O)[C@H]2[C@@]1(C)CC[C@H]1C(=O)O[C@H](c3ccoc3)C[C@]21C [Formula Ia-v] | 162 nM | 9.5 | > 10 µM |  |  |
| COC(=O)[C@@H]1C[C@H](NC(=O)c2ccccc2)C(=O)[C@H]2[C@@]1(C)CC[C@H]1C(=O)O[C@H](c3ccoc3)C[C@]21C | 0.232 nM | 21.73 |  |  | 9.19 ± 2.75 µM |

From patent US10556889B1, “Salvinorin derivatives” (Blue Sky Pharmaceuticals, LLC, priority 2018, dated 2020)
